Measurements taken from the NIST ThermoML archive (doi:10.1021/je400405m).
± gives the expanded uncertainty stated by the source.

Assay: wn = mass fraction of the nth substance listed
Conditions: w1 = 0.0516; for surface tension liquid-gas: Maximal bubble pressure; for viscosity / mass density: 101 kPa, Liquid; for viscosity: Capillary tube (Ostwald / Ubbelohde) method; for mass density: Pycnometric method

C1CNCCN1 [piperazine] + O
surface tension liquid-gas (303.15 K): 68.55 ± 0.54 mN/m | viscosity (303.15 K): 0.948 ± 0.009 mPa·s | mass density (303.15 K): 998.03 ± 0.4 kg/m3 | surface tension liquid-gas (313.15 K): 66.97 ± 0.53 mN/m | viscosity (313.15 K): 0.75 ± 0.007 mPa·s | mass density (313.15 K): 994.71 ± 0.44 kg/m3 | surface tension liquid-gas (323.15 K): 65.1 ± 0.52 mN/m | viscosity (323.15 K): 0.616 ± 0.006 mPa·s | mass density (323.15 K): 990.08 ± 0.47 kg/m3
